The values that follow come from publication PMC9513756, “Establishing a UHPLC-MS/MS method for evaluation of the influence of stir-frying on the pharmacokinetics of seven compounds in Arctii Fructus” (RSC Advances, 2022).

The nature of the data set: Pharmacokinetics of seven compounds in rat plasma after oral administration of RAF and SAF extracts (UHPLC-MS/MS). As to conditions: for AUC(0-inf) / AUC(0-t) / Tmax / half-life / MRT inf: male, Sprague-Dawley, rat, plasma, po, 12 g/kg. Type of data set: in vivo, male Sprague-Dawley rats.
Setting [1] is: oral RAF extract 12 g kg^−1, n = 6.
The mark [2] stands for this setting: oral RAF extract 12 g kg^−1, n = 6, read-out: Mean residence time (MRT(0–∞)).
Where [3] appears, read: oral SAF extract 12 g kg^−1, n = 6.
[4] abbreviates: oral SAF extract 12 g kg^−1, n = 6, read-out: Mean residence time (MRT(0–∞)).

A word on the AUC(0-inf): it is the area under the concentration-time curve extrapolated to infinity. A higher AUC(0-inf) goes with more exposure. Broadly, the AUC(0-t) is exposure summed from dosing to a finite time, without extrapolation to infinity. One may read the Tmax as the time at which the peak concentration occurs. One may read the half-life as the time in which the quantity being followed falls by half. A higher half-life goes with slow loss.

Read-outs that look alike come from different tables or passages of the source.

Protocol: All the components were measured using a Shimadzu UHPLC system (Shimadzu, Japan), and a Triple Quadrupole 5500 LC-MS/MS system (AB Sciex, USA) in negative ion mode. […] The gradient program was: 5–28% B (0–3 min), 28% B (3–3.5 min), 28–38% B (3.5–4 min), 38% B (4–4.5 min), 38–100% B (4.5–6 min), 100–5% B (6–7 min). With a column temperature of 40 °C, the optimized key parameters including curtain gas, collision gas, ion spray voltage, and temperature were assigned values of 55 psi, 35 psi, 4500 V, and 550 °C, respectively.
The rat plasma sample (100 μL), IS (10 μL), and 2 M HCl (20 μL) were mixed and vortex mixed for 3 min. Subsequently, 1 mL of ethyl acetate–butyl alcohol (1 : 1) was spiked into the mixed solution, and then centrifuged for 5 min at 25 000 × g.[14] Next, the supernatant was transferred and evaporated with nitrogen gas. These residues were then re-dissolved in 100 μL of 60% methanol, with the final solutions being vortex mixed for 3 min, and then centrifuged for 10 min at 25 000 × g. Finally, the supernatant was injected into the UHPLC-MS/MS for extensive analysis.
Firstly, male Sprague-Dawley rats (200–220 g) in the animal laboratory at the Nanjing University of Chinese Medicine under the standard conditions (License number: SYXK(SU)-2007-0030) were fed. The rats were fed and provided with water for one week prior to the experimentation. Secondly, before the administration of the extracts, the rats were stopped from eating but were provided with water for 12 h prior to the test. […] Depending on the clinical dosage administered to the human body, the dosage of RAF and SAF comprised 12 g kg^−1 for oral administration. In addition, 500 μL blood samples (about 250 μL plasma) were collected in 1.5 mL heparinized polythene tubes at 0, 0.033, 0.083, 0.167, 0.33, 0.5, 0.75, 1, 2, 4, 6, 8, 12, 24, and 48 h via the postorbital venous plexus veins, after oral administration of the two extracts was observed. Finally, the collected plasma was centrifuged for 5 min at 25 000 × g and stored at −20 °C before the analysis. All the pharmacokinetic parameters were evaluated with the DAS 1.0 system (Medical College of Wannan, China). Furthermore, the maximum concentration of oral administration of AF (Cmax) and the time to reach Cmax (Tmax) were derived from the concentration–time profile. All the values were given as mean ± standard deviation.

In the case of `O=C(C=Cc1ccc(O)c(O)c1)OC1C(O)CC(O)(C(=O)O)CC1O` (stereo not shown) [Cryptochlorogenic acid, cryptochlorogenic acid], under setting [1], the AUC(0-inf) was found to be 196 ± 59.1 ng·h/mL, the area under the curve AUC(0-t) worked out at 152 ± 60.7 ng·h/mL, the Tmax came to 0.431 ± 0.07 h and the half-life is 12.6 ± 7.96 h. Besides, the “C (max)” value under setting [1] was found to be 34.80 ± 25.06 ng/mL. Under setting [2], the MRT inf was 19.9 ± 9.37 h. For the same compound, under setting [3], the total exposure AUC(0-inf) turned out to be 280 ± 68 ng·h/mL, the AUC(0-t) amounted to 218 ± 80.3 ng·h/mL, the time to peak (Tmax) is 0.103 ± 0.05 h and the half-life was 13.5 ± 7.98 h. In addition, the “C (max)” value under setting [3] turned out to be 116.16 ± 35.41 ng/mL. Under setting [4], the MRT inf came out at 16.9 ± 8.6 h.

`COc1ccc(C[C@H]2COC(=O)[C@@H]2Cc2ccc(O[C@@H]3O[C@H](CO)[C@@H](O)[C@H](O)[C@H]3O)c(OC)c2)cc1OC` [Arctiin, arctiin]: under setting [1], the AUC(0-inf) was 1070 ± 417 ng·h/mL, the AUC(0-t) amounted to 826 ± 216 ng·h/mL, the Tmax was found to be 0.152 ± 0.09 h and the half-life is 3 ± 1.42 h. In addition, the “C (max)” value under setting [1] turned out to be 1019.3 ± 605.9 ng/mL. Moreover, the MRT inf under setting [2] was 5.33 ± 2.99 h. In addition, under setting [3], the AUC(0-inf) stood at 1970 ± 600 ng·h/mL, the AUC(0-t) was 943 ± 228 ng·h/mL, the time to peak (Tmax) was 0.072 ± 0.05 h and the half-life was 3.83 ± 1.86 h. In addition, the “C (max)” value under setting [3] came out at 605.7 ± 389.5 ng/mL. In addition, the MRT inf under setting [4] came out at 8.98 ± 3.11 h.

Regarding `O=C(/C=C/c1ccc(O)c(O)c1)O[C@@H]1C[C@](O)(C(=O)O)C[C@@H](O)[C@H]1O` [Chlorogenic acid, chlorogenic acid], under setting [1], the AUC(0-inf) came to 1090 ± 588 ng·h/mL, the AUC(0-t) was found to be 1070 ± 594 ng·h/mL, the time to peak (Tmax) came to 0.875 ± 0.41 h and the “C (max)” value is 348.5 ± 161.3 ng/mL. Under setting [1], the “t 1/2” value was determined as 2.175 ± 0.28 h. In addition, the MRT inf under setting [2] is 3.72 ± 0.6 h. In addition, under setting [3], the AUC(0-inf) was found to be 937 ± 660 ng·h/mL, the AUC(0-t) turned out to be 695 ± 307 ng·h/mL, the Tmax amounted to 0.111 ± 0.43 h and the half-life was 4.37 ± 0.32 h. Also, under setting [3], the “C (max)” value was 303.7 ± 105.7 ng/mL. Further, under setting [4], the MRT inf came out at 5.09 ± 1.82 h.

For `O=C(C=Cc1ccc(O)c(O)c1)OC1CC(O)(C(=O)O)CC(OC(=O)C=Cc2ccc(O)c(O)c2)C1O` (stereo not shown) [Isochlorogenic acid A, isochlorogenic acid A], under setting [1], the AUC(0-inf) was determined as 272 ± 169 ng·h/mL, the exposure AUC(0-t) came to 219 ± 110 ng·h/mL, the Tmax came out at 0.792 ± 0.09 h and the half-life was 6.7 ± 3.61 h. Moreover, under setting [1], the “C (max)” value is 99.05 ± 37.81 ng/mL. Further, under setting [2], the MRT inf was 8.35 ± 2.91 h. Under setting [3], the area under the curve AUC(0-inf) was 180 ± 63.6 ng·h/mL, the AUC(0-t) is 101 ± 73.1 ng·h/mL, the Tmax worked out at 0.1 ± 0.07 h and the half-life was 3.27 ± 1.26 h. Besides, the “C (max)” value under setting [3] turned out to be 135.71 ± 25.50 ng/mL. In addition, the MRT inf under setting [4] was 7.97 ± 5.12 h.

Regarding `O=C(C=Cc1ccc(O)c(O)c1)OC1CC(O)(C(=O)O)CC(O)C1OC(=O)C=Cc1ccc(O)c(O)c1` (stereo not shown) [Isochlorogenic acid B, isochlorogenic acid B], under setting [3], the half-life is 24.3 ± 11.5 h, the “C (max)” value was found to be 43.22 ± 26.80 ng/mL, the “Mean residence time (MRT(0–∞))” value was 32.75 ± 15.17 h and the T max was 6.18 ± 3 min. Under setting [1], the “C (max)” value was 11.33 ± 8.68 ng/mL, the “Mean residence time (MRT(0–∞))” value amounted to 52.97 ± 27.74 h, the T max turned out to be 7.02 ± 4.2 min and the “t 1/2” value is reported as 35.68 ± 18.24 h.

For the compound `COc1cc(C[C@H]2C(=O)OC[C@@H]2Cc2ccc(OC)c(OC)c2)ccc1O` [Arctigenin, arctigenin], under setting [1], the time of peak concentration (Tmax) stood at 9 ± 2.45 h, the half-life is 8.25 ± 1.09 h and the “C (max)” value amounted to 706.9 ± 148.9 ng/mL. Further, the MRT inf under setting [2] was 14.9 ± 0.99 h. Moreover, under setting [3], the Tmax was found to be 8.67 ± 3.72 h, the half-life is 9.95 ± 4.46 h and the “C (max)” value came to 600.8 ± 158.3 ng/mL. The MRT inf under setting [4] is 17.8 ± 6.08 h. Further, the “shape of plasma concentration-time profile” value (oral RAF and SAF) is “double-peak phenomenon”.

On to `O=C(C=Cc1ccc(O)c(O)c1)OC1CC(O)(C(=O)O)CC(O)C1OC(=O)C=Cc1ccc(O)c(O)c1` (stereo not shown) [Isochlorogenic acid C, isochlorogenic acid C], for which, under setting [1], the area under the curve AUC(0-inf) came out at 84.1 ± 46.3 ng·h/mL, the AUC(0-t) was 71.5 ± 33.2 ng·h/mL, the Tmax worked out at 0.125 ± 0.05 h and the “C (max)” value was found to be 39.89 ± 17.30 ng/mL. In addition, under setting [1], the “Mean residence time (MRT(0–∞))” value is listed as 15.89 ± 11.25 h and the “t 1/2” value stood at 9.002 ± 5.89 h. Further, under setting [3], the AUC(0-t) is 79.5 ± 25.1 ng·h/mL, the Tmax stood at 0.078 ± 0.03 h, the “C (max)” value is 103.84 ± 47.62 ng/mL and the “Mean residence time (MRT(0–∞))” value was found to be 8.736 ± 5.55 h. Further, under setting [3], the “t 1/2” value came out at 6.770 ± 4.30 h.
